These results are taken from article PMC8271706, “Structural Characterization and Assessment of Anti-Inflammatory and Anti-Tyrosinase Activities of Polyphenols from Melastoma normale” (Molecules, 2021).

Bounds are passed on as bounds.

The test system of experiment [1] is LPS-stimulated RAW 264.7 cells. Put plainly: NO production by LPS-stimulated RAW 264.7 cells (Griess). Particulars: Mus musculus, RAW264.7, read-out: IC50 for the inhibition of NO production. It is filed as cell-based. The protocol: Four new compounds 1–4 were tested for potential anti-inflammatory activity by measuring the inhibition of the nitric oxide (NO) production. […] The IC50 values for the inhibition of NO production by compounds 1–4 are all > 50 μM. […] From the experimental results and literature data, the flavonoids in the title plant have better anti-inflammatory activity than ellagitannins, it may be the active ingredient corresponding to the anti-inflammatory effect of this plant.
The RAW 264.7 cells were cultivated in DMEM supplemented with 10% FBS at 37 °C in a humidified atmosphere of 5% CO2 for 24 h. Cells in 24-well plate (5 × 10^4 cells/well) were treated with 200 ng/mL LPS and the test compounds. After 22 h, the media were collected, and the level of nitrite was measured using the Griess Reagent System (Promega, Madison, WI, USA).
For orientation: Griess reagent forms a coloured azo dye with nitrite.

Experiment [2] relates to mushroom tyrosinase. The experiment can be described thus: Anti-tyrosinase activity, L-DOPA as substrate. It is filed as biochemical. Particulars: for IC50: IC50 ± SD, pH 6.8, read-out: Tyrosinase inhibitory activity IC50. The protocol: All compounds were investigated for potential tyrosinase inhibitory activity.
The anti-tyrosinase activities of the isolates were investigated according to the procedure described by Aoki et al. with slight modifications. […] Solution of L-DOPA at 5.0 mM, mushroom tyrosinase at 100 U/mL, as well as samples at different concentrations were prepared in phosphate buffer (pH 6.8). 20 µL of the sample solution and 10 µL of mushroom tyrosinase solution were mixed and pre-incubated at 37 °C for 10 min, then 40 µL of L-DOPA solution was added and incubated at 37 °C for 5 min. The absorbance was measured at 475 nm using the Spark 10M multimode microplate reader (Tecan Trading AG, Zurich, Switzerland). All assays were repeated three times and each time in triplicate. The percent inhibition of tyrosinase activity was calculated using the following formula:Tyrosinase inhibition (%) = [1 − (T − T0)/(C − C0)] × 100 where T represents the absorbance with sample and tyrosinase; T0 represents the absorbance with sample but no tyrosinase; C represents the absorbance with tyrosinase but no sample; C0 represents the absorbance without tyrosinase and sample.

For experiment [3] the following is noted: cited from earlier work.

For `CCOC(=O)C1(O)C(=O)C2=C3C(=O)OC(C2OCC)C2OC(=O)c4c(c(O)c(O)c(O)c4C31)-c1c(cc(O)c(O)c1O)C(=O)OC1COC(=O)c3cc(O)c(O)c(O)c3-c3c(cc(O)c(O)c3O)C(=O)OC12` (stereo not drawn) [Compound 1, Whiskey tannin C], the IC50 was more than 50 µM in experiment [1] and 426 ± 11.3 µM in experiment [2]. The “tyrosinase inhibitory activity (in words)” value in experiment [2] is “weak”.
`O=c1c(O)c(-c2ccc(O)c(O)c2)oc2cc(O)cc(O)c12` [Compound 10, quercetin]: the “tyrosinase inhibitory activity (in words)” value in experiment [2] is “significant”. For the same compound, the “anti-inflammatory activity (in words)” value in experiment [3] was “have anti-inflammatory activity”.
As to `C[C@@H]1O[C@@H](Oc2c(-c3ccc(O)cc3)oc3cc(O)cc(O)c3c2=O)[C@H](O)[C@H](O)[C@H]1O` [Compound 8, kaempferol-3-rhamnoside], in experiment [2], the “tyrosinase inhibitory activity (in words)” value is given as “no significant” and the IC50 was more than 2000 µM. Moreover, in experiment [3], the “anti-inflammatory activity (in words)” value is “have no anti-inflammatory activity”.
Regarding `C[C@@H]1O[C@@H](Oc2c(-c3ccc(O)c(O)c3)oc3cc(O)cc(O)c3c2=O)[C@H](O)[C@H](O)[C@H]1O` [Compound 11, quercetin-3-O-α-L-rhamnoside], the IC50 in experiment [2] came out at 98.2 ± 2.31 µM. In addition, in experiment [3], the “anti-inflammatory activity (in words)” value was “have no anti-inflammatory activity”.
Take `O=c1c(O)c(-c2ccc(O)cc2)oc2cc(O)cc(O)c12` [Compound 7, kaempferol]: in experiment [2], the IC50 is 1900 ± 38.2 µM. In addition, the “anti-inflammatory activity (in words)” value in experiment [3] was “have anti-inflammatory activity”.
For `COc1c(O)cc(C(=O)O[C@@H]2O[C@H](COC(=O)c3cc(O)c(O)c(O)c3)[C@@H](O)[C@@H]3OC(=O)c4cc(O)c(O)c(O)c4-c4c(cc(O)c(O)c4O)C(=O)O[C@@H]23)cc1O` [Compound 2, 1-O-(4-methoxygalloyl)-6-O-galloyl-2,3-O-(S)-hexahydroxydiphenoyl-β-D-glucose], the IC50 in experiment [1] was more than 50 µM; in experiment [2], 241 ± 6.23 µM.
The like results for `COc1cc(C(=O)OC[C@H]2O[C@@H](OC(=O)c3cc(O)c(O)c(O)c3)[C@@H]3OC(=O)c4cc(O)c(O)c(O)c4-c4c(cc(O)c(O)c4O)C(=O)O[C@H]3[C@@H]2O)cc(O)c1O` [Compound 3, 1-O-galloyl-6-O-(3-methoxygalloyl)-2,3-O-(S)-hexahydroxydiphenoyl-β-D-glucose] were, in that order, more than 50 µM and 154 ± 3.63 µM.
Turning to `C[C@@H]1O[C@@H](Oc2c(-c3cc(O)c(O)c(O)c3)oc3cc(O)cc(O)c3c2=O)[C@H](O)[C@H](O)[C@H]1O` [Compound 12, myricetin-3-O-α-L-rhamnopyranoside], in experiment [2], the “tyrosinase inhibitory activity (in words)” value is recorded as “no significant” and the IC50 stood at 905 ± 20.4 µM. In addition, the “anti-inflammatory activity (in words)” value in experiment [3] is given as “have anti-inflammatory activity”.
Regarding `COc1cc(C(=O)OC[C@H]2O[C@@H](OC(=O)c3cc(O)c(O)c(O)c3)[C@@H]3OC(=O)c4cc(O)c(O)c(O)c4-c4c(cc(O)c(O)c4O)C(=O)O[C@H]3[C@@H]2O)ccc1O` [Compound 4, 1-O-galloyl-6-O-vanilloyl-2,3-O-(S)-hexahydroxydiphenoyl-β-D-glucose], the IC50 is more than 50 µM in experiment [1] and 125 ± 3.12 µM in experiment [2].

What is called IC50 is the concentration that gives 50% inhibition.
